Measured values as given in the NIST ThermoML archive (doi:10.1021/je100042c).

Details: 101.33 kPa, Liquid; for viscosity: Concentric cylinders viscometry; for mass density: Vibrating tube method

CCCCCCCC(=O)OC [methyl octanoate]
Details | mass density [kg/m3] | viscosity [mPa·s]
283.15 K | 885.9 | 1.71
288.15 K | 881.5 | 1.559
293.15 K | 877.1 | 1.427
298.15 K | 872.8 | 1.313
303.15 K | 868.4 | 1.212
308.15 K | 864 | 1.123
313.15 K | 859.6 | 1.044
318.15 K | 855.2 | 0.9733
323.15 K | 850.8 | 0.9093
328.15 K | 846.4 | 0.8518
333.15 K | 841.9 | 0.7998
338.15 K | 837.5 | 0.7528
343.15 K | 833 | 0.7101
348.15 K | 828.5 | 0.6713
353.15 K | 824 | 0.6359

CCCCCCCCCCCCCCCCCC(=O)OC [methyl octadecanoate]
Details | mass density [kg/m3] | viscosity [mPa·s]
313.15 K | 849.8 | 4.986
318.15 K | 846.1 | 4.435
323.15 K | 842.5 | 3.965
328.15 K | 838.9 | 3.568
333.15 K | 835.3 | 3.225
338.15 K | 831.7 | 2.929
343.15 K | 828.1 | 2.672
348.15 K | 824.5 | 2.448
353.15 K | 820.9 | 2.25
358.15 K | 817.3 | 2.076
363.15 K | 813.7 | 1.922

CCCCCCCCCCCC(=O)OC [methyl dodecanoate]
Details | mass density [kg/m3] | viscosity [mPa·s]
283.15 K | 877.7 | 4.068
288.15 K | 873.7 | 3.577
293.15 K | 869.8 | 3.167
298.15 K | 865.8 | 2.824
303.15 K | 861.8 | 2.536
308.15 K | 857.9 | 2.289
313.15 K | 853.9 | 2.078
318.15 K | 850 | 1.894
323.15 K | 846.1 | 1.735
328.15 K | 842.1 | 1.595
333.15 K | 838.1 | 1.471
338.15 K | 834.2 | 1.362
343.15 K | 830.2 | 1.265
348.15 K | 826.2 | 1.178
353.15 K | 822.3 | 1.1

CCCCCCCC/C=C\CCCCCCCC(=O)OCC [ethyl (Z)-9-octadeceneoate]
Details | mass density [kg/m3] | viscosity [mPa·s]
278.15 K | 880.5 | 10.39
283.15 K | 876.9 | 8.839
288.15 K | 873.2 | 7.595
293.15 K | 869.5 | 6.591
298.15 K | 865.9 | 5.769
303.15 K | 862.2 | 5.092
308.15 K | 858.5 | 4.525
313.15 K | 854.9 | 4.048
318.15 K | 851.3 | 3.641
323.15 K | 847.6 | 3.292
328.15 K | 844 | 2.99
333.15 K | 840.4 | 2.729
338.15 K | 836.8 | 2.502
343.15 K | 833.1 | 2.301
348.15 K | 829.5 | 2.124
353.15 K | 825.9 | 1.967
358.15 K | 822.3 | 1.827
363.15 K | 818.7 | 1.702

CCCCCCCCCCCCCCCC(=O)OC [methyl hexadecanoate]
Details | mass density [kg/m3] | viscosity [mPa·s]
308.15 K | 854.5 | 4.212
313.15 K | 850.8 | 3.755
318.15 K | 847 | 3.368
323.15 K | 843.3 | 3.038
328.15 K | 839.6 | 2.754
333.15 K | 835.8 | 2.508
338.15 K | 832.1 | 2.295
343.15 K | 828.4 | 2.107
348.15 K | 824.7 | 1.942
353.15 K | 821 | 1.796
358.15 K | 817.3 | 1.666
363.15 K | 813.6 | 1.55

CCCCCCCCCCCCCCCC(=O)OCC [ethyl hexadecanoate]
Details | mass density [kg/m3] | viscosity [mPa·s]
303.15 K | 852.6 | 5.011
308.15 K | 848.9 | 4.44
313.15 K | 845.2 | 3.956
318.15 K | 841.5 | 3.547
323.15 K | 837.9 | 3.197
328.15 K | 834.2 | 2.897
333.15 K | 830.5 | 2.637
338.15 K | 826.9 | 2.412
343.15 K | 823.2 | 2.214
348.15 K | 819.5 | 2.039
353.15 K | 815.9 | 1.884
358.15 K | 812.2 | 1.746
363.15 K | 808.6 | 1.623

CCCCCCCCCCCCCC(=O)OCC [ethyl tetradecanoate]
Details | mass density [kg/m3] | viscosity [mPa·s]
283.15 K | 868.7 | 6.26
288.15 K | 864.8 | 5.43
293.15 K | 861 | 4.749
298.15 K | 857.2 | 4.188
303.15 K | 853.4 | 3.721
308.15 K | 849.6 | 3.328
313.15 K | 845.8 | 2.993
318.15 K | 842 | 2.706
323.15 K | 838.2 | 2.458
328.15 K | 834.5 | 2.242
333.15 K | 830.7 | 2.055
338.15 K | 826.9 | 1.889
343.15 K | 823.1 | 1.743
348.15 K | 819.4 | 1.614
353.15 K | 815.6 | 1.499
